Data from patent publication US20050004029A1, “Methods and compositions for treating vascular leak using hepatocyte growth factor” (priority 2001, published 2005).

Legend:
[1] = tested on: Bovine Pulmonary Artery Endothelium; experiment: Transendothelial electrical resistance (TER) across bovine pulmonary artery endothelium; assay type: cell-based; conditions: VEGF 100 ng/ml, Sph 1-P 1 μM, HGF 20 ng/ml
Description: Bovine pulmonary artery endothelial cells were purchased from the American Type Culture Collection (ATCC®, Rockville, Md.) and utilized at passage 19-24. Cells were maintained in Medium 199 (Life Technologies, Rockville, Md.) supplemented with 20% (v/v) colostrum-free bovine serum (CFBS) (Irvine Scientific, Santa Ana, Calif.), 15 μg/ml endothelial cell growth supplement (Upstate Biotechnology, Lake Placid, N.Y.), 1% antibiotic and antimycotic, and 0.1 mM non-essential amino acids (Life Technologies). Human pulmonary artery endothelial cells were purchased from Clonetics (Walkersville, Md.), cultured in EBM-2 complete medium (Clonetics) and utilized at passage 5-10. Human alveolar epithelial cells (A549) were purchased from ATCC® and cultured in the same medium as the bovine endothelial cells, except that the endothelial cell growth supplement was omitted. All cells were maintained at 37° C. in a humidified atmosphere of 5% CO2 and 95% air.
Electrical resistance of EC monolayers was measured using electrical cell impedance sensor system (Applied Biophysics Inc., Troy, N.Y.) as described in Garcia, J. G. N. et al. (2000) J. Appl. Physiol. 89:2333-2343. Cells grown on gold microelectrodes (10^−3 cm^2) in polycarbonate wells act as insulating particles, and the resistance across the monolayers (transendothelial electrical resistance, or TER) is measured in real time. As cells adhere on the microelectrode and intercellular cell contacts are formed or in response to agents which increase junctional integrity, the TER increases (Garcia, J. G. N. et al. (2001) J. Clin. Invest. 108:689-711). In contrast, cell retraction, rounding, or loss of adhesion is reflected by decreases in TER (Garcia, J. G. N. et al. (2000) J. Appl. Physiol. 89:2333-2343). These measurements provide a highly sensitive biophysical assay that indicates the state of cell shape, focal adhesion, and endothelial barrier function (Giaever, I. and Keese, C. R. (1993) Nature 366:591-592; Tiruppathi, C. et al. (1992) Proc. Natl. Acad. Sci. USA 89:7919-7923). All electrical resistance data are presented as normalized values. Briefly, current was applied across the electrodes by a 4000 Hz AC voltage source with an amplitude of 1 V in series with a 1 MΩ resistance to approximate a constant current source (−1 μA). The small gold electrode and the larger counter electrode (1 cm^2) were connected to a phase-sensitive lock-in amplifier (5301A; EG&G Instruments Corp, Princeton, N.J.) with a built in differential preamplifier (5316A; EG&G Instruments Corp.). The in-phase and out-of-phase voltages between the electrodes were monitored in real time with the lock-in amplifier and converted to scalar measurements of transendothelial impedance, of which resistance was the primary focus. […] For some experiments, total TER was vectorially resolved into components reflecting resistance to current flow beneath the cell layer (α) and resistance to current flow between adjacent cells (Rb) as described in Garcia et al. (2000) supra utilizing the method of Giaiver and Keese which models the endothelial monolayer mathematically (Giaever, I. and Keese, C. R. (1993) Nature 366:591-592). Thus, changes in α reflect alterations in the net state of cell-matrix adhesion, whereas changes in Rb reflect alterations in the integrity of cell-cell adhesion. TER values from each microelectrode were pooled at discrete time points and plotted versus time as the mean±standard error of the mean (Garcia et al. (2000) supra).

PKCα = PKCα activation (phospho-PKC immunoreactivity, membrane translocation); assay type: cell-based, human; conditions: after HGF
Description: Endothelial cell monolayers grown to confluence in 12-well plates and challenged with HGF were lysed with 100 μl of 2×SDS sample buffer, and cell lysates were transferred into microcentrifuge tubes and boiled for 5 min. After a brief spin, proteins from 10 μl cell lysates were separated on 12% SDS-PAGE and transferred to nitrocellulose (Schleicher & Schuell, Keene, N.H.) (30V, 18 h). After blocking with PBST (PBS with 0.1% Tween 20) containing 5% non-fat milk for 1 hr, nitrocellulose blots were reacted with primary antibodies diluted in PBST containing 5% BSA for 1 hr, washed with PBST (3×10 min), incubated with peroxidase-conjugated secondary antibodies (goat anti-rabbit IgG, 1:10,000 dilution, Sigma; or goat anti-mouse IgG, 1:10,000 dilution, Bio-Rad Labs, Richmond, Calif.) diluted in PBST with 5% non-fat milk for 1 hr and again washed with PBST (3×10 min). Finally, immunoreactive proteins were detected using ECL. The relative intensities of the protein bands were quantified by scanning densitometry.
Endothelial cells were fractionated into cytosolic, membrane, and nuclear/cytoskeleton fractions as described in Borbiev, T. et al. (2001) Am. J. Physiol. Lung Cell. Mol. Physiol. 280:L983-L990. […]

[2] = vs vehicle control, ±SEM, thrombin 100 μM

HGF: heparin-binding glycoprotein, multifunctional cytokine, ligand of c-Met; purchased from R&D Systems
TER response in words ([1]; thrombin, 10-60 min): brisk and sustained increase in TER | changes in TER 30 min [1, 2]: +35 ± 5% | changes in TER 60 min [1, 2]: +35 ± 4% | changes in TER 10 min ([1]; vs vehicle control, ±SEM, thrombin 100 μM, (+) increased, (−) decreased): +25 ± 3% | time at which PKCα activation is detectable (phospho-PKC immunoreactivity) (PKCα): 15 min | time of PKCα translocation to the membrane fraction (PKCα): 5 min
